# From patent US9018207B2, “Method of treatment or prophylaxis” (Spinifex Pharmaceuticals Pty Ltd, priority 2004, dated 2015)
# Several values for one entry are separate records, joined by “and”; a condition that tells them apart may be missing. Equal entries are not always repeated. Entries after “also recorded” stand apart in the source; their conditions may differ.
# What was measured:
# Type in all cases: in vivo, Sprague-Dawley (SD) rats
# [1] = tested on: rats with a chronic constriction injury (CCI) of the sciatic nerve; assay: Antinociception (von Frey paw withdrawal thresholds) in the contralateral hindpaw of CCI-rats
# Experimental: (§1) Adult male Sprague-Dawley (SD) rats were anaesthetized with Zoletil 100® (0.09 ml/200 g) and Xylazil-20™ (0.1 mL/200 g) administered by intraperitoneal (i.p.) injection, and a chronic constriction injury (CCI) of the sciatic nerve was produced according to the method of Bennett and Xie (1988). Briefly, the left common sciatic nerve was exposed at mid-thigh level by blunt dissection through the biceps femoris. Proximal to the trifurcation, 10 mm of nerve was freed of adhering tissue and four loose ligatures (3.0 silk) were tied around the sciatic nerve 1 mm apart). The incision was closed in layers. After surgery, rats received benzylpenicillin (60 mg s.c.) to prevent infection and were kept warm during surgical recovery. Rats were housed singly for 10-14 days prior to AT2 receptor antagonist or vehicle (normal saline) administration. After CCI-surgery, rats were inspected daily with regard to posture of the affected hindpaw, exploring behavior, body weight and water intake, and any signs of autotomy. Whilst under light anaesthesia with CO2/O2 (50:50%), CCI-rats or STZ-diabetic rats received a single bolus injection (200 μL) of one AT2 receptor antagonist (PD123,319 or L-159,686) by the intravenous (i.v.) or the intraperitoneal (i.p.) route, using a 250 μL Hamilton syringe. The test compounds were administered to CCI-rats at 14 days after CCI-surgery and to STZ-diabetic rats at approximately 8-wks after the induction of diabetes with STZ. Relief of tactile (mechanical) allodynia, the defining symptom of neuropathic pain, by each of the test agents, PD123,319 or L-159,686, was quantified using calibrated von Frey filaments as described below. Tactile allodynia was quantified using calibrated von Frey filaments. Rats were placed in wire mesh testing cages (20 cm×20 cm×20 cm) and allowed to acclimatise for approximately […] Von Frey filaments were used to determine the lowest mechanical threshold required for a brisk paw withdrawal reflex. Briefly, the filament that produced the lowest force was applied to the plantar surface of the hindpaw until the filament buckled slightly. Absence of a response after 5 s prompted use of the next filament in an ascending sequence. Filaments used produced a buckling weight of 2, 4, 6, 8, 10, 12, 14, 16, 18 and 20 g and these were calibrated prior to each testing session. […] For CCI-rats, baseline von Frey paw withdrawal thresholds (PWTs) were quantified prior to CCI-surgery, and at 14 days post-surgery immediately prior to drug administration. For STZ-diabetic rats, baseline von Frey PWT values were determined prior to the induction of diabetes with STZ and at 1-2 weekly intervals thereafter for 8 weeks to document the temporal development of tactile allodynia. For all rats, baseline PWTs were the mean of three readings taken, 5 min apart before drug administration and were determined separately for each hindpaw. After administration of each test compound, von Frey PWTs were determined at the following post-dosing times: 0.08, 0.25, 0.5, 0.75, 1, 1.25, 1.5, 2 and 3 h. Paw withdrawal thresholds (PWTs; g) were plotted against time to construct response versus time curves for each of the two test compounds (PD123,319 and L-159,686) for each dose and dosing route. Whilst adult male SD rats were anaesthetized with 3% isoflurane: 97% oxygen, four loose ligatures were tied around one sciatic nerve to produce a unilateral chronic constriction injury (CCI) according to the method of Bennett and Xie (1988, Pain 33: 87-107). […]
# [2] = tested on: rats with a chronic constriction injury (CCI) of the sciatic nerve; assay: Relief of tactile allodynia (von Frey paw withdrawal thresholds) in the ipsilateral (injured) hindpaw of CCI-rats; conditions: for doses required to produce significant relief of tactile allodynia in CCI-rats compared with STZ-diabetic rats: CCI-rats vs STZ-diabetic rats
# Experimental: as §1, with “87-107). Briefly, the left common sciatic nerve was exposed at mid-thigh level by blunt dissection through the biceps femoris. Proximal to the trifurcation, 10 mm of nerve was freed of adhering tissue and four loose ligatures (3.0 silk) were tied around the sciatic nerve 1 mm apart). The incision was closed in layers. After surgery, rats received benzylpenicillin (60 mg s.c.) to prevent infection and were kept warm during surgical recovery.” for “87-107).”
# [3] = tested on: STZ-diabetic rats; assay: Relief of tactile allodynia (von Frey paw withdrawal thresholds) in the hindpaws of STZ-diabetic rats (model of PDN); conditions: for relief of tactile allodynia (summary in discussion): STZ-diabetic rat model of PDN; for relief of tactile allodynia (summary in discussion) / onset of anti-allodynia (summary in discussion): single i.p. bolus doses; for reversal of tactile allodynia in the hindpaws: i.p., higher doses tested
# Experimental: Adult male SD rats were anaesthetized in a manner similar to that described above, to facilitate insertion of a polyethylene cannula (previously filled with 0.1 ml of sterile saline) into the right common jugular vein. Jugular vein cannulae were tested for correct placement by the withdrawal of a small amount of blood. Diabetes was induced following an acute i.v. injection of streptozotocin (STZ) (80 mg/kg) in 0.1 M citrate buffer (pH 4.5) into the jugular vein. Diabetes was confirmed by monitoring the water intake and blood glucose concentration in individual rats. Blood glucose was monitored using either (Glucostix™) or a Precision QID™ test kit.
# Consistent with previous studies in the literature (Calcutt et al., 1996, Pain. 68(2-3):293-9), rats that drank more than 100 mL of water per day by 10 days post-STZ injection, were classified as diabetic, and only rats with blood glucose concentrations exceeding 15 mM were included in the subsequent experiments. By comparison, the water intake of control non-diabetic rats was approximately 20 mL per day and blood glucose concentrations were in the range 5-6 mM, consistent with the literature (Calcutt et al., 1996, supra).
# Whilst under light anaesthesia with CO2/O2 (50:50%), CCI-rats or STZ-diabetic rats received a single bolus injection (200 μL) of one AT2 receptor antagonist (PD123,319 or L-159,686) by the intravenous (i.v.) or the intraperitoneal (i.p.) route, using a 250 μL Hamilton syringe. The test compounds were administered to CCI-rats at 14 days after CCI-surgery and to STZ-diabetic rats at approximately 8-wks after the induction of diabetes with STZ. Relief of tactile (mechanical) allodynia, the defining symptom of neuropathic pain, by each of the test agents, PD123,319 or L-159,686, was quantified using calibrated von Frey filaments as described below.
# Tactile allodynia was quantified using calibrated von Frey filaments. Rats were placed in wire mesh testing cages (20 cm×20 cm×20 cm) and allowed to acclimatise for approximately […] Von Frey filaments were used to determine the lowest mechanical threshold required for a brisk paw withdrawal reflex. Briefly, the filament that produced the lowest force was applied to the plantar surface of the hindpaw until the filament buckled slightly. Absence of a response after 5 s prompted use of the next filament in an ascending sequence. Filaments used produced a buckling weight of 2, 4, 6, 8, 10, 12, 14, 16, 18 and 20 g and these were calibrated prior to each testing session.
# For CCI-rats, baseline von Frey paw withdrawal thresholds (PWTs) were quantified prior to CCI-surgery, and at 14 days post-surgery immediately prior to drug administration. For STZ-diabetic rats, baseline von Frey PWT values were determined prior to the induction of diabetes with STZ and at 1-2 weekly intervals thereafter for 8 weeks to document the temporal development of tactile allodynia. For all rats, baseline PWTs were the mean of three readings taken, 5 min apart before drug administration and were determined separately for each hindpaw. After administration of each test compound, von Frey PWTs were determined at the following post-dosing times: 0.08, 0.25, 0.5, 0.75, 1, 1.25, 1.5, 2 and 3 h.
# Paw withdrawal thresholds (PWTs; g) were plotted against time to construct response versus time curves for each of the two test compounds (PD123,319 and L-159,686) for each dose and dosing route.
# Whilst adult male SD rats were anaesthetized with 3% isoflurane: 97% oxygen, a short polyethylene cannula (0.4 mm ID, 0.8 mm OD) was inserted into the jugular vein to facilitate the intravenous (i.v) administration of a single dose of STZ (75 mg/kg). After removal of the i.v. cannula, the jugular vein was tied off, the wound was closed and topical bupivacaine was applied. Rats received benzylpenicillin (60 mg s.c.) to prevent infection and were kept warm during surgical recovery. […]
# [4] = tested on: rats with a chronic constriction injury (CCI) of the sciatic nerve; assay: Relief of tactile allodynia (von Frey paw withdrawal thresholds) in the ipsilateral (injured) hindpaw of CCI-rats; conditions: oral bolus 1 mg/kg vs same dose i.p.
# [5] = CCI-rats, i.p. bolus 0.03 to 3 mg/kg
# [6] = STZ-diabetic rats, i.p. bolus 0.001 to 3.0 μg/kg
# [7] = CCI-rats, sodium salt, i.p. bolus 0.003 to 10 mg/kg
# [8] = STZ-diabetic rats, sodium salt, i.p. bolus 0.0003 to 3 mg/kg
smiles,measurement,setting,value
"Cc1cc(Cn2cnc3c2C[C@@H](C(=O)O)N(C(=O)C(c2ccccc2)c2ccccc2)C3)ccc1N(C)C [PD-123,319]",antinociception in the contralateral hindpaw,"[1]; single bolus i.p. 1-10 mg/kg, n=3-4",antinociception in the contralateral hindpaw
same,antinociception in the contralateral hindpaw,"[1]; single bolus i.v. 0.1-0.3 mg/kg, n=2",antinociception in the contralateral hindpaw
same,relief of tactile allodynia in the ipsilateral (injured) hindpaw,"[2]; CCI-rats, single bolus i.p. 1-10 mg/kg, n=3-4",dose-dependent (A) relief of tactile allodynia
same,relief of tactile allodynia in the ipsilateral (injured) hindpaw,"[2]; CCI-rats, single bolus i.v. 0.1-0.3 mg/kg, n=2",dose-dependent (A) relief of tactile allodynia
same,relief of tactile allodynia,"[3]; STZ-diabetic rats (8-wks after STZ), single bolus i.p. 0.3-3.0 mg/kg, n=4",dose-dependent relief of tactile allodynia
"COc1ccc(Cn2cnc3c2C[C@@H](C(=O)O)N(C(=O)C(c2ccccc2)c2ccccc2)C3)cc1C [PD-121,981]","extent and duration of the anti-allodynic response, oral compared with i.p. route",[4],similar
same,antinociception in the contralateral hindpaw,[1]; i.p. doses up to 3 mg/kg,insignificant antinociception
same,doses required to produce significant relief of tactile allodynia in CCI-rats compared with STZ-diabetic rats,[2],considerably larger doses
same,duration of action,"[2]; CCI-rats, 1 mg/kg, irrespective of dosing route (oral or i.p.)",3 h
same,anti-allodynia (relief of tactile allodynia) in the ipsilateral hindpaw,[2]; [5],dose-dependent anti-allodynia; also recorded: dose-dependent relief of tactile allodynia
same,durations of action,[2]; [5],2 to 3 h
same,onset of anti-allodynia in the ipsilateral hindpaw,[2]; [5],rapid onset
same,time of peak anti-allodynia in the ipsilateral hindpaw post-dosing,[2]; [5],0.5 to 0.75 h and 0.5 to 1.0 h
same,relief of tactile allodynia (summary in discussion),[3],potent relief of tactile allodynia
same,duration of action,"[3]; STZ-diabetic rats, 0.1 μg/kg, irrespective of dosing route (oral or i.p.)",exceeded 3 h
same,onset of action,[3]; [6],rapid onset of action
same,relief of tactile allodynia,[3]; [6],dose-dependent relief of tactile allodynia
same,time of peak anti-allodynia post-dosing,[3]; [6],0.5 to 1.0 h
same,duration of action,"[3]; STZ-diabetic rats, i.p. doses in the range 0.03-3.0 μg/kg",> 3 h
same,reversal of tactile allodynia in the hindpaws,[3]; STZ-diabetic rats,fully reversed
same,"extent and duration of the anti-allodynic response, oral compared with i.p. route","[3]; STZ-diabetic rats, oral bolus 0.1 μg/kg vs same dose i.p.",similar
same,onset of anti-allodynia (summary in discussion),[3]; STZ-diabetic rats,relatively rapid onset
"CCc1nc2ccc(N(Cc3ccccc3)C(=O)c3cccs3)cc2c(=O)n1Cc1ccc(-c2ccccc2-c2nn[nH]n2)cc1.[Na] [L-161,638 (sodium salt), thiophene-2-carboxylic Acid benzyl-{2-ethyl-4-oxo-3-[2′-(2H-tetrazol-5yl)-biphenyl-4-ylmethyl]-3,4-dihydro-quinazolin-6-yl}-amide Sodium Salt]",antinociception in the contralateral hindpaw,"[1]; sodium salt, i.p. doses up to 10 mg/kg",insignificant antinociception
same,doses required to produce significant relief of tactile allodynia in CCI-rats compared with STZ-diabetic rats,[2],considerably larger doses
same,anti-allodynia (relief of tactile allodynia) in the ipsilateral hindpaw,[2]; [7],dose-dependent relief of tactile allodynia
same,durations of action,[2]; [7],1.5 to 3 h
same,onset of anti-allodynia in the ipsilateral hindpaw,[2]; [7],rapid onset
same,time of peak responses post-dosing,[2]; [7],0.5 to 0.75 h
same,anti-allodynia (relief of tactile allodynia) in the ipsilateral hindpaw,"[2]; CCI-rats, sodium salt, i.p. bolus 0.003 to 10 mg/kg, listed as L-161,638, Sodium Salt",dose-dependent anti-allodynia
same,relief of tactile allodynia (summary in discussion),[3],potent relief of tactile allodynia
same,reversal of tactile allodynia in the hindpaws,[3]; STZ-diabetic rats,fully reversed
same,onset of anti-allodynia (summary in discussion),[3]; STZ-diabetic rats,relatively rapid onset
same,duration of action,"[3]; STZ-diabetic rats, sodium salt, i.p. 3 mg/kg dose",> 3 h
same,onset of relief of tactile allodynia,[3]; [8],rapid onset
same,relief of tactile allodynia,[3]; [8],dose-dependent relief of tactile allodynia
same,time of peak effects post-dosing,[3]; [8],0.25 to 0.75 h
same,relief of tactile allodynia,"[3]; STZ-diabetic rats, sodium salt, i.p. bolus 0.0003 to 3 mg/kg, listed as L-161,638, Sodium Salt",relief of tactile allodynia
same,duration of action,"[3]; STZ-diabetic rats, sodium salt, i.p. doses in the range 0.0003-0.03 μg/kg",3 h
